# Reference: US20100016366A1, “Novel Compounds Active as Muscarinic Receptor Antagonists” (priority 2008, published 2010)
# How the values were obtained:
# [1] = biological target: T1, human muscarinic M3 receptor (Homo sapiens, UniProt P20309); assay: Cell based potency assessment, hM3 β-lactamase assay (CHO cell β-lactamase); details: CHO cells recombinantly expressing human M3, NFAT-β-lactamase reporter; inhibition of 80 nM carbamyl choline signal, 4 h; IC50 converted by Cheng-Prusoff
# T1 construct: expressed in transfected cells; host or cells: CHO (CHO-K1) cells
# Experimental: Cell BASED POTENCY ASSESSMENT at the Human Recombinant M3 Muscarinic Receptor
# M3 potency was determined in CHO-K1 cells transfected with the NFAT-Betalactamase gene. CHO (Chinese Hamster Ovary) cells recombinantly expressing the human muscarinic M3 receptor were transfected with the NFAT_β-Lac_Zeo plasmid. Cells were grown in DMEM with Glutamax-1, supplemented with 25 mM HEPES (Life Technologies 32430-027), containing 10% FCS (Foetal Calf Serum; Sigma F-7524), […] Sodium pyruvate (Sigma S-8636), NEAA (non-Essential Amino Acids; Invitrogen 11140-035) and 200 μg/ml Zeocin (Invitrogen R250-01).
# hM3 β-Lactamase Assay Protocol
# Cells were harvested for assay when they reached 80-90% confluency using enzyme free cell Dissociation Solution (Life technologies 13151-014) incubated with the cells for 5 min at 37° C. in an atmosphere containing 5% CO2. Detached cells were collected in warmed growth media and centrifuged at 2000 rpm for 10 min, washed in PBS (Phosphate Buffered Saline; Life Technologies 14190-094) and centrifuged again as just described. The cells were re-suspended at 2×10^5 cells/ml in growth medium (composition as described above). 20 μl of this cell suspension was added to each well of a 384 well black clear bottomed plate (Greiner Bio One 781091-PFI). The assay buffer used was PBS supplemented with 0.05% Pluronic F-127 (Sigma 9003-11-6) and 2.5% DMSO. Muscarinic M3 receptor signalling was stimulated using 80 nM carbamyl choline (Aldrich N240-9) incubated with the cells for 4 h at 37° C./5% CO2 and monitored at the end of the incubation period using a Tecan SpectraFluor+plate reader (λ−excitation 405 nm, emission 450 nm and 503 nm). M3 receptor antagonists under test were added to the assay at the beginning of the 4 h incubation period and compound activity measured as the concentration dependent inhibition of the carbamyl choline induced signal. Inhibition curves were plotted and IC50 values generated using a 4-parameter sigmoid fit and converted to Ki values using the Cheng-Prusoff correction and the KD value for carbamyl choline in the assay.
# [2] = biological target: T1, human muscarinic M3 receptor; assay: hM3 competition binding assay (3H-NMS, CHO cell membranes); details: CHO cell membranes expressing human M3; 3H-NMS at 5×KD, 24 hr at RT; IC50 corrected by Cheng-Prussoff
# Experimental: Binding Affinity Assessment at the Human Recombinant M3 Muscarinic Receptor
# Cell Pellets from CHO (Chinese Hamster Ovary) cells recombinantly expressing the human muscarinic M3 receptor were homogenised in 20 mM HEPES (pH7.4) and centrifuged at 48000×g for 20 min at 4° C. The pellet was re-suspended in buffer and the homogenisation and centrifugation steps repeated. The resulting pellet was re-suspended in 1 ml buffer per 1 ml original packed cell volume and the homogenisation step repeated. Protein estimation was carried out on the suspension and 1 ml aliquots of ˜1 mg/ml frozen at −80° C.
# hM3 Competition Binding Assay Protocol
# Membranes (5 µg/well) were incubated with ^3H-NMS (at a concentration 5×KD) plus/minus test compound for 24 hr at RT (room temperature) in a 1 ml polystyrene 96-well deep well block. The final assay volume was 200 µl, comprising of: 20 µl plus/minus test compound; 20 µl ^3H-NMS (Perkin Elmer NEN 636) and 160 µl membrane solution. Total Binding was defined with 0.1% DMSO; Non-Specific Binding was defined with 1 µM Atropine. Assay buffer was 20 mM Hepes (pH 7.4).
# Once all assay components were added, plates were covered and incubated at room temperature for 24 hrs with shaking. The assay was terminated by rapidly filtering through GF/B Unifilter plates pre-soaked with 0.5% polyethylenimine, using a Packard filtermate harvester, the filter plate was then washed with 3×1 ml 4° C. assay buffer. The filter plates were dried at 45° C. for 1 hour. The bottoms of the filter plates were sealed and 50 µl/well of Microscint ‘0’ added, the top of the plates were sealed with a Topseal. Following 90 mins, the plates were read on an NXT Topcount (1 minute read time per well).
# The resulting data was expressed as a percentage of the specific binding (Specific binding=Total binding−Non-Specific Binding). % specific binding versus test compound concentration was plotted to determine an IC50 from a sigmoid curve using an in-house data analysis programme. IC50 values corrected to Ki values by applying the Cheng-Prussoff equation: […]
# where IC50 is the concentration of unlabelled drug which inhibits by 50% the specific radioligand binding. [L] is the free radioligand concentrations and KD and Ki are the equilibrium dissociation constants of the radioligand and unlabelled drug respectively.
# T1 sequence (P20309 whole entry): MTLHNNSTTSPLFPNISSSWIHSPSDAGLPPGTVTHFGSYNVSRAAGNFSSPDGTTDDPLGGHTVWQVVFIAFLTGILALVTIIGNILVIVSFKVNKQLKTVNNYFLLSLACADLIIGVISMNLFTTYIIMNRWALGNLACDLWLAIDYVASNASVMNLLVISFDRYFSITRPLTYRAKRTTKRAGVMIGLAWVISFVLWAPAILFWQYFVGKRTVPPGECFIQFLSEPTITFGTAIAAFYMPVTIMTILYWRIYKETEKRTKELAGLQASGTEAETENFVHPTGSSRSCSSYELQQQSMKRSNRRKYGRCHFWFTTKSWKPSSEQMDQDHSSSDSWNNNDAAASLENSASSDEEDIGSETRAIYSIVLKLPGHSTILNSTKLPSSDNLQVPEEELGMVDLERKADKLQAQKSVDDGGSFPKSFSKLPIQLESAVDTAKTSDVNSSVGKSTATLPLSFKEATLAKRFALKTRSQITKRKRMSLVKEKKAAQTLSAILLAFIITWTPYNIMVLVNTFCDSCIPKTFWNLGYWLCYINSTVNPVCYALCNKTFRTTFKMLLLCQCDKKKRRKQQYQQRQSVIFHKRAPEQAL
Structure (SMILES),Ki [1],Ki [2]
"O=C(Nc1ccccc1-c1ccccc1)OC1CCN(CCCCCCCCCNCc2cccc(O)c2Cl)CC1 [Example 5, Biphenyl-2-yl-carbamic acid 1-[9-(2-chloro-3-hydroxy-benzylamino)-nonyl]-piperidin-4-yl ester]",0.894 nM,0.521 nM
"CN(CCCCCCCCCN1CCC(OC(=O)Nc2ccccc2-c2ccccc2)CC1)C(=O)Cc1ccc(O)c(F)c1 [Example 18, Biphenyl-2-yl-carbamic acid 1-(9-{[2-(3-fluoro-4-hydroxy-phenyl)-acetyl]-methyl-amino}-nonyl)-piperidin-4-yl ester]",0.353 nM,2.29 nM
"O=C(Cc1ccc(O)c(F)c1)NCCCCCCCCCN1CCC(OC(=O)Nc2ccccc2-c2ccccc2)CC1 [Example 10, Biphenyl-2-yl-carbamic acid 1-{9-[2-(3-fluoro-4-hydroxy-phenyl)-acetylamino]-nonyl}-piperidin-4-yl ester]",0.803 nM,1.07 nM
"O=C(Nc1ccccc1-c1ccccc1)OC1CCN(CCCCCCCCCNCc2cc(F)cc(F)c2O)CC1 [Example 29, Biphenyl-2-yl-carbamic acid 1-[9-(2-hydroxy-3,5-difluoro-benzylamino)-nonyl]-piperidin-4-yl ester]",0.816 nM,1.35 nM
"O=C(Nc1ccccc1-c1ccccc1)OC1CCN(CCCCCCCCCNCc2cccc(F)c2O)CC1 [Example 30, Biphenyl-2-yl-carbamic acid 1-[9-(2-hydroxy-3-fluoro-benzylamino)-nonyl]-piperidin-4-yl ester]",0.705 nM,1.31 nM
"O=C(Nc1ccccc1-c1ccccc1)OC1CCN(CCCCCCCCCNC(=O)c2ccc(O)c(F)c2F)CC1 [Example 23, Biphenyl-2-yl-carbamic acid 1-[9-(2,3-difluoro-4-hydroxy-benzoylamino)-nonyl]-piperidin-4-yl ester]",0.276 nM,2.38 nM
"O=C(Nc1ccccc1-c1ccccc1)OC1CCN(CCCCCCCCCNC(=O)c2ccc(O)cc2F)CC1 [Example 20, Biphenyl-2-yl-carbamic acid 1-[9-(2-fluoro-4-hydroxy-benzoylamino)-nonyl]-piperidin-4-yl ester]",0.918 nM,1.95 nM
"O=C(Nc1ccccc1-c1ccccc1)OC1CCN(CCCCCCCCCNCc2ccc(F)c(O)c2)CC1 [Example 36, Biphenyl-2-yl-carbamic acid 1-[9-(3-hydroxy-4-fluoro-benzylamino)-nonyl]-piperidin-4-yl ester]",2.24 nM,0.235 nM
"O=C(Nc1ccccc1-c1ccccc1)OC1CCN(CCCCCCCCCNCc2cc(F)ccc2O)CC1 [Example 35, Biphenyl-2-yl-carbamic acid 1-[9-(2-hydroxy-5-fluoro-benzylamino)-nonyl]-piperidin-4-yl ester]",1.64 nM,1.38 nM
"O=C(Cc1ccc(O)c(Cl)c1)NCCCCCCCCCN1CCC(OC(=O)Nc2ccccc2-c2ccccc2)CC1 [Example 4, Biphenyl-2-yl-carbamic acid 1-{9-[2-(3-chloro-4-hydroxy-phenyl)-acetylamino]-nonyl}-piperidin-4-yl ester]",0.0415 nM,1.19 nM
"O=C(Nc1ccccc1-c1ccccc1)OC1CCN(CCCCCCCCCNC(=O)c2cc(Cl)c(O)c(Cl)c2)CC1 [Example 25, Biphenyl-2-yl-carbamic acid 1-[9-(4-hydroxy-3,5-dichloro-benzoylamino)-nonyl]-piperidin-4-yl ester]",0.854 nM,4.34 nM
"O=C(Nc1ccccc1-c1ccccc1)OC1CCN(CCCCCCCCCNC(=O)c2ccc(O)c(F)c2)CC1 [Example 6, Biphenyl-2-yl-carbamic acid 1-[9-(3-fluoro-4-hydroxy-benzoylamino)-nonyl]-piperidin-4-yl ester]",0.222 nM,0.778 nM
"O=C(Nc1ccccc1-c1ccccc1)OC1CCN(CCCCCCCCCNCc2cc(Cl)ccc2O)CC1 [Example 32, Biphenyl-2-yl-carbamic acid 1-[9-(5-chloro-2-hydroxy-benzylamino)-nonyl]-piperidin-4-yl ester]",1.34 nM,3.04 nM
"O=C(Nc1ccccc1-c1ccccc1)OC1CCN(CCCCCCCCCNC(=O)c2ccc(O)c(Cl)c2)CC1 [Example 1, Biphenyl-2-yl-carbamic acid 1-[9-(3-chloro-4-hydroxy-benzoylamino)-nonyl]-piperidin-4-yl ester]",0.0697 nM,1.6 nM
"CN(CCCCCCCCCN1CCC(OC(=O)Nc2ccccc2-c2ccccc2)CC1)C(=O)c1ccc(O)c(Cl)c1 [Example 17, Biphenyl-2-yl-carbamic acid 1-{9-[(3-chloro-4-hydroxy-benzoyl)-methyl-amino]-nonyl}-piperidin-4-yl ester]",0.25 nM,2.15 nM
"O=C(Nc1ccccc1-c1ccccc1)OC1CCN(CCCCCCCCCNCc2cc(Cl)c(O)c(Cl)c2)CC1 [Example 22, Biphenyl-2-yl-carbamic acid 1-[9-(3,5-dichloro-4-hydroxy-benzylamino)-nonyl]-piperidin-4-yl ester]",0.149 nM,0.865 nM
"O=C(Nc1ccccc1-c1ccccc1)OC1CCN(CCCCCCCCCNCc2cc(F)cc(Cl)c2O)CC1 [Example 3, Biphenyl-2-yl-carbamic acid 1-[9-(3-chloro-5-fluoro-2-hydroxy-benzylamino)-nonyl]-piperidin-4-yl ester]",0.779 nM,2.33 nM
"O=C(Nc1ccccc1-c1ccccc1)OC1CCN(CCCCCCCCCNCc2ccc(O)c(F)c2)CC1 [Example 38, Biphenyl-2-yl-carbamic acid 1-[9-(4-hydroxy-3-fluoro-benzylamino)-nonyl]-piperidin-4-yl ester]",1.48 nM,0.175 nM
